# Data: article PMC3445454, “Broad and Cross-Clade CD4^+ T-Cell Responses Elicited by a DNA Vaccine Encoding Highly Conserved and Promiscuous HIV-1 M-Group Consensus Peptides” (PLoS ONE, 2012)
# Numbering of substitutions follows the chain as printed. Like-named read-outs stand apart in the source and are kept apart here. Ends that are not written are not given here.
# What was measured:
# Test in all cases: biochemical
# [1] = target: T1, HLA-DP DPA1*02:01/DPB1*14:01 (Homo sapiens, UniProt P04440+P20036, A65V/A84D/A85E/E86D/F191V/F38H/G113D/G114E/G40L/I94L/K142R/L158P/L37V/M105V/M116V/M62Q/P115A/Q81R/R125K/T114A/T199I/T259P); assay type: binding
# T1 sequence (P20036 29-260 A42M/M62Q/Q81R/T114A/K142R/L158P/F191V/T259P): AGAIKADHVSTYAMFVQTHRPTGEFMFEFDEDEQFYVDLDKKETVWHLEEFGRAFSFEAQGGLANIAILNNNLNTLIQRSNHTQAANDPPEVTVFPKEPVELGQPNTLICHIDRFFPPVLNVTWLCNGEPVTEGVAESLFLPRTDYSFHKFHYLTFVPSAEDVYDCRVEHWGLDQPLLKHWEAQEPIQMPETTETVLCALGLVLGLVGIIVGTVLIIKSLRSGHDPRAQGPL
# T1 sequence (P04440 30-258 L37V/F38H/G40L/A65V/A84D/A85E/E86D/I94L/M105V/G113D/G114E/P115A/M116V/R125K/T199I/R223Q): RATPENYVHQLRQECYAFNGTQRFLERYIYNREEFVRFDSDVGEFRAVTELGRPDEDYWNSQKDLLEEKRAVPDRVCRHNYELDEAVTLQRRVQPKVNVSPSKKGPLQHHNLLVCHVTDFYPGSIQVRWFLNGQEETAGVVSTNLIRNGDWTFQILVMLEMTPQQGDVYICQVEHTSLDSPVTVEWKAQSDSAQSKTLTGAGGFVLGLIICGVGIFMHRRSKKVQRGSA
# [2] = target: HLA-DR DRB1*16:02 (Homo sapiens, UniProt P01903+P01911, A100R/F76Y/I96L/Q99D/V115G); assay type: binding
# [3] = target: HLA-DR DRB1*10:01 (Homo sapiens, UniProt P01903+P01911, A100R/A169T/D57E/F55L/F60V/F69Y/F76Y/I96L/L162R/M171V/P40V/Q260P/Q39E/Q99R/R195Q/R42F/S149N/S66Y/T210M/V115G/V67A/W38E/Y59R/Y61H); assay type: binding
# [4] = target: HLA-DR DRB3*01:01 (Homo sapiens, UniProt P01903+P79483); assay type: binding
# [5] = target: HLA-DR DRB1*15:01 (Homo sapiens, UniProt P01903+P01911); assay type: binding
# [6] = target: HLA-DR DRB3*02:02 (Homo sapiens, UniProt P01903+P79483, A212P/D57E/F66Y/L67A/R103Q/R218S/R40L/S89Y/T80R/V86D/Y55F/Y59H); assay type: binding
# Sequence of HLA-DR DRB3*02:02 (P01903 26-254 limits assumed): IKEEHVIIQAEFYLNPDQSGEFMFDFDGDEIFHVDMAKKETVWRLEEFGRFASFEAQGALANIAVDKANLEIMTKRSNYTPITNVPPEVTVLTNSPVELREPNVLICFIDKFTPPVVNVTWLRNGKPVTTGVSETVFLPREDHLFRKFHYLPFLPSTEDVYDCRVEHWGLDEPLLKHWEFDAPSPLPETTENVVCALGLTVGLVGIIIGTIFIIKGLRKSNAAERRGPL
# Sequence of HLA-DR DRB3*02:02 (P79483 30-266 R40L/Y55F/D57E/Y59H/F66Y/L67A/T80R/V86D/S89Y/R103Q/A212P/R218S limits assumed): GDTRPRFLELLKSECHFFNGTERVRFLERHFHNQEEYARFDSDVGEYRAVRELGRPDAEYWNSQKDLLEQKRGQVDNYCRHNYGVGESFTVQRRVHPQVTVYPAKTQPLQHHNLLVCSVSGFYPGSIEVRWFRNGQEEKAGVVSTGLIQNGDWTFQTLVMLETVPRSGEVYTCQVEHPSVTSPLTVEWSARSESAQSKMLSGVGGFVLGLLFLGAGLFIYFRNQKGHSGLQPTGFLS
# [7] = target: HLA-DR DRB1*01:01 (Homo sapiens, UniProt P01903+P01911, A100R/D57E/F55L/F60I/F76Y/I96L/L162R/M171V/P40L/Q125E/R42F/V115G/Y59C); assay type: binding
# [8] = target: HLA-DP DPA1*02:01/DPB1*01:01 (Homo sapiens, UniProt P04440+P20036, F191V/F38Y/F64Y/G113D/G114E/K142R/L158P/L37V/M105V/M116V/M62Q/P115A/Q81R/R125K/R223Q/T114A/T199I/T259P)
# [9] = target: HLA-DR DRB1*13:02 (Homo sapiens, UniProt P01903+P01911, A100E/A169T/K41T/L162R/M171V/P40S/Q125H/Q178H/Q39Y/Q99D/R42S/S66N/T262R/V115G/W38E/Y61H); assay type: binding
# Sequence of HLA-DR DRB1*13:02 (P01903 26-254 limits assumed, other chains not shown): as the sequence (P01903 26-254 limits assumed) above
# [10] = target: HLA-DR DRB1*04:01 (Homo sapiens, UniProt P01903+P01911, A100K/A169T/F76Y/I96L/K127E/L162R/M171V/N62H/P40V/Q125Y/R42H/S133A/S149N/S66Y/V115G/V209L/W38E); assay type: binding
# [11] = target: HLA-DR DRB1*07:01 (Homo sapiens, UniProt P01903+P01911, A100R/A102G/A103Q/D57E/D86V/E43K/F76Y/K127E/L162R/M171V/P40G/Q125H/Q99D/R33Q/R42Y/R54Q/S133A/S66F/T210M/V115G/Y107V/Y59L/Y89S); assay type: binding
# [12] = target: T2, HLA-DP DPA1*01:03/DPB1*04:01 (Homo sapiens, UniProt P04440+P20036); assay type: binding
# T2 sequence (P20036 29-260): T1 sequence (P20036 29-260 A42M/M62Q/Q81R/T114A/K142R/L158P/F191V/T259P) with M14A, Q34M, R53Q, A86T, R114K, P130L, V163F, P231T
# T2 sequence (P04440 30-258): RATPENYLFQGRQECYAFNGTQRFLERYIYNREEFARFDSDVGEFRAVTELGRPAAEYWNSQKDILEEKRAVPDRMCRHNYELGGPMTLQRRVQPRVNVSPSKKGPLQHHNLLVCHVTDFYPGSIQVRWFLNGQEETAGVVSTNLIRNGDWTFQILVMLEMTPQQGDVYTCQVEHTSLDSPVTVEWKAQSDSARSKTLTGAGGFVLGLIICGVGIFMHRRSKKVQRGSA
# [13] = target: HLA-DR DRB1*11:01 (Homo sapiens, UniProt P01903+P01911, A100R/A169T/A87E/I96F/K41T/L162R/M171V/P40S/Q125H/Q178H/Q39Y/Q99D/R42S/S66Y/T262R/V115G/W38E); assay type: binding
# Sequence of HLA-DR DRB1*11:01 (P01903 26-254 limits assumed, other chains not shown): as the sequence (P01903 26-254 limits assumed) above
# [14] = read-out: Binding capacity/IC50 (nM) DRB3*01:01
# [15] = read-out: Binding capacity/IC50 (nM) DRB1*15:01
# [16] = read-out: Binding capacity/IC50 (nM) DRB3*02:02
# [17] = read-out: Binding capacity/IC50 (nM) DRB1*01:01
# [18] = read-out: Binding capacity/IC50 (nM) DRB1*04:01
# [19] = read-out: Binding capacity/IC50 (nM) DRB1*07:01
# [20] = read-out: Binding capacity/IC50 (nM) DPA1*01:03 DPB1*04:01
# [21] = read-out: Binding capacity/IC50 (nM) DRB1*11:01
# [22] = read-out: Binding capacity/IC50 (nM) DPA1*02:01 DPB1*14:01
# [23] = read-out: Binding capacity/IC50 (nM) DRB1*16:02
# [24] = read-out: Binding capacity/IC50 (nM) DRB1*10:01
# [25] = read-out: Binding capacity/IC50 (nM) DRB1*13:02
Molecule,IC50 [1] [nM],"IC50 [4, 14] [nM]","IC50 [5, 15] [nM]",IC50 [6] [nM],IC50 [8] [nM],IC50 [12] [nM],"IC50 [6, 16] [nM]","IC50 [7, 17] [nM]","IC50 [10, 18] [nM]","IC50 [11, 19] [nM]","IC50 [12, 20] [nM]","IC50 [13, 21] [nM]","IC50 [1, 22] [nM]","IC50 [2, 23] [nM]","IC50 [3, 24] [nM]","IC50 [9, 25] [nM]",also measured
CSCC[C@H](NC(=O)[C@H](CCCCN)NC(=O)[C@H](C)NC(=O)[C@H](Cc1ccc(O)cc1)NC(=O)[C@H](CCCCN)NC(=O)CNC(=O)[C@@H](NC(=O)[C@H](CCCCN)NC(=O)[C@H](CC(C)C)NC(=O)[C@H](CC(N)=O)NC(=O)[C@H](CCCCN)NC(=O)[C@H](Cc1ccccc1)NC(=O)[C@@H]1CCCN1C(=O)[C@H](CCC(=O)O)NC(=O)[C@@H](N)CCC(N)=O)[C@@H](C)O)C(N)=O [RT(343-357)],15100,5610,47,8610,300,14,–,–,–,–,–,–,–,–,–,–,IC50 [2]: 464 nM; IC50 [3]: 19 nM; IC50 [7]: 81 nM; IC50 [9]: 25000 nM; IC50 [10]: 591 nM; IC50 [11]: 6210 nM; IC50 [13]: 428 nM
CC[C@H](C)[C@H](NC(=O)CNC(=O)[C@H](CCCCN)NC(=O)[C@H](Cc1c[nH]cn1)NC(=O)[C@H](C)NC(=O)[C@@H]1CCCN1C(=O)[C@@H](NC(=O)[C@H](Cc1c[nH]c2ccccc12)NC(=O)[C@H](CO)NC(=O)[C@H](CC(C)C)NC(=O)[C@H](Cc1ccc(O)cc1)NC(=O)[C@@H](NC(=O)[C@H](CCCCN)NC(=O)[C@H](CCC(=O)O)NC(=O)[C@@H](N)CCCCN)C(C)C)C(C)C)C(=O)NCC(=O)NCC(=O)N[C@@H](CC(N)=O)C(=O)N[C@@H](CCC(=O)O)C(N)=O [RT(528-546)],4850,–,–,–,585,–,82,16,68,6.3,1390,3150,–,–,–,–,IC50 [4]: 576 nM; IC50 [5]: 97 nM
CC[C@H](C)[C@H](NC(=O)[C@H](Cc1ccc(O)cc1)NC(=O)CNC(=O)[C@H](CO)NC(=O)[C@H](C)NC(=O)[C@@H](NC(=O)[C@H](Cc1c[nH]cn1)NC(=O)[C@@H](NC(=O)[C@H](C)NC(=O)[C@@H](NC(=O)[C@H](CC(C)C)NC(=O)[C@@H](NC(=O)[C@@H](NC(=O)[C@H](CCCCN)NC(=O)CNC(=O)[C@@H](N)CCC(=O)O)[C@@H](C)CC)[C@@H](C)CC)C(C)C)C(C)C)C(C)C)C(=O)N[C@@H](CCC(=O)O)C(N)=O [integrase(69-85)],–,624,146,–,5930,–,7190,0.56,7.6,70,2830,–,1370,167,4.8,17000,–
DEELLKAVRIIKILYQSNP-NH2 [rev(9-27)],–,978,–,–,461,637,4.4,7.4,13,41,–,2120,710,74,3.9,–,–
EAVRHFPRPWLHGL-NH2 [vpr(29-42)],7690,–,112,9490,8610,17000,–,–,–,–,–,–,–,–,–,–,IC50 [2]: 367 nM; IC50 [3]: 311 nM; IC50 [4]: 7870 nM; IC50 [7]: 71 nM; IC50 [10]: 1290 nM; IC50 [11]: 1390 nM; IC50 [13]: > 30000 nM
IRYPLTFGWCFKLVPVDPREVEEA-NH2 [nef(133-156)],–,3440,–,–,249,–,> 30000,315,–,472,44,4540,15900,2740,–,4290,IC50 [5]: 718 nM
IVALIIAIVVWTIV-NH2 [vpu(13-26)],–,–,2030,> 30000,26100,–,–,261,19600,> 30000,> 30000,12700,> 30000,4360,1780,> 30000,–
LNKIVRMYSPVSILDI-NH2 [p24(138-153)],–,–,–,–,26,47,–,–,–,–,–,79,16,–,6.6,–,–
NYPIVQNLQGQMVHQAISPR-NH2 [p17(131-132)/p24(1-18)],–,–,211,–,2870,–,2880,4.4,83,5420,1550,1130,2990,68,59,–,IC50 [4]: 517 nM
VGSLQYLALTALITPKK-NH2 [vif(142-158)],71,942,3.8,577,115,–,–,–,–,–,33,–,–,–,–,–,IC50 [7]: 0.35 nM; IC50 [9]: 7.1 nM; IC50 [10]: 6.4 nM; IC50 [11]: 4.1 nM; IC50 [13]: 48 nM
YAKMRSAHTNDVKQL-NH2 [RT(354-368)],919,–,773,–,4430,–,2850,–,79,120,3550,1760,–,58,16,74,–
